Measurements taken from PubChem BioAssay (NCI).
“And” between values parts separate entries of the source, which are not always exact repeats. Identical values can stand only once.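 Test compounds were applied to cells in 96-well plates for 48 hours at 5 doses. The concentration for 50% growth inhibition is given as GI50. TGI is the concentration that stops growth completely.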 Where a SMILES comes first, the peptide text is derived from it. [ ]: non-standard residue; d: D form. The star is where a group is joined. ξ: configuration not given here. X37 = O=C(OCc1ccccc1)[C@@H]1CCC[C@H]1N*; Fmoc = O=C(OCC1c2ccccc2-c2ccccc21)*; ξW = NC(Cc1c[nH]c2ccccc12)C(=O)O; ξF = NC(Cc1ccccc1)C(=O)O; Boc = CC(C)(C)OC(=O)*; ξK = NCCCCC(N)C(=O)O; ξT = CC(O)C(N)C(=O)O; OBn = c1ccc(CO*)cc1; Bn = c1ccc(C*)cc1; tBu = CC(C)(C)*

What was measured:
[1] = system: SNB-19 CNS; experiment: NCI-60 cell line screen, 48 h
[2] = system: HOP-62 NSCLC; experiment: NCI-60 cell line screen, 48 h

Row | SMILES | TGI [1] | TGI [2] | GI50 [1]
1 | CCC1=C(C)C2=NC1=CC1=NC(=C(CC)/C1=C/O)C=C1N=C3C(=C1C)C(=O)C(C(=O)OC)C3=C1NC(=C2)C(C)C1CCC(=O)OC (stereo unspecified) | > 100 µM | > 100 µM | –
2 | CC(=O)OCC1OC(n2c(-c3ccccc3)c(N=Nc3ccc(Cl)cc3)c(C)c(C#N)c2=S)C(OC(C)=O)C(OC(C)=O)C1OC(C)=O (stereo unspecified) | 33.3 µM and > 100 µM | 52.9 µM and > 100 µM | 4.48 µM and 34.1 µM
3 | COc1ccc2c(c1)CC[C@@H]1C2CC[C@]2(C)OC(=O)CCC12 (stereo partly specified) | 38.2 µM | 65.3 µM | –
4 | Cc1ccc(S(=O)(=O)OC2CN3CCC2CC3)cc1 (stereo unspecified) | > 100 µM | > 100 µM | –
5 | CCOC(=O)Cc1csc(/N=C\c2c(O)c3ccccc3oc2=O)n1 | > 100 µM | 75.9 µM | –
6 | Cc1cn2c(/C=C3/C(=O)Nc4ccccc43)c(-c3ccccc3)nc2s1 | 55.4 µM | > 100 µM | –
7 | CC(=O)OCc1ccc(-c2nc(C#N)c(N)o2)o1 | > 10 µM | > 10 µM | –
8 | CC(C)(C)[C@@H]1NC(=O)CN1C(=O)OCc1ccccc1 | > 100 µM | > 100 µM | –
9 | CC(C)(C)NCC(O)COc1cccc2[nH]c(C#N)cc12 (stereo unspecified) | > 100 µM | > 100 µM | –
10 | COC(=O)C1Cc2c([nH]c3ccccc23)-c2[nH]c3ccccc3c2CC(NC(C)=O)C(=O)NCC(=O)N1 (stereo unspecified) | > 100 µM | > 100 µM | –
11 | COc1ccc2cc(C(=O)NCCc3ccccc3)ccc2c1OC | > 100 µM | 75.3 µM | –
12 | CC1(C)OC1CC/C(=C/CBr)CBr (stereo unspecified) | 28.6 µM | 31.6 µM | –
13 | CC(OC(C)(C)C)C(NC(=O)C(CCCCNC(=O)OC(C)(C)C)NC(=O)C(Cc1c[nH]c2ccccc12)NC(=O)C(Cc1ccccc1)NC(=O)OCC1c2ccccc2-c2ccccc21)C(=O)NC(Cc1ccccc1)C(=O)N[C@@H]1CCC[C@H]1C(=O)OCc1ccccc1 (stereo partly specified) (Fmoc-[ξF][ξW][ξK](Boc)[ξT](tBu)[ξF]-X37) | – | > 100 µM | –
14 | CC(C)CC(NC(=O)C(Cc1ccccc1)NC(=O)C(COCc1ccccc1)NC(=O)OC(C)(C)C)C(=O)OCc1ccccc1 (stereo not drawn) (Boc-Ser(Bn)-Phe-Leu-OBn; configuration not given here) | > 100 µM | > 100 µM | –
15 | CCOc1ccc(N=NC2C(=O)N(C(=O)CC(=O)Nc3ccc(Cl)cc3)N=C2C)cc1 (stereo unspecified) | – | > 100 µM | –
16 | COc1ccc(N(C(=O)OC(C)(C)C)[C@@H]2C(C)=C[C@H]([S@@](=O)c3ccc(C)cc3)[C@@H]3C(=O)N(C)C(=O)[C@@H]32)cc1 | 51.5 µM | 64.2 µM | –
17 | NC12c3c4cccc3Oc3cccc(c31)Oc1cccc(c12)O4 | > 50 µM | > 50 µM | –
18 | CC(=O)NC1C(OCC(=O)NC(C)C(=O)NC(CCC(=O)NCCCCCNc2ccc([N+](=O)[O-])c3[nH]c4ccccc4c(=O)c23)C(N)=O)C(O)C(CO)OC1(C)OCc1ccccc1 (stereo unspecified) | > 50 µM | > 50 µM | –
19 | CCCCCCc1cc(C=O)sc1-c1ccc(-c2sc(-c3ccc(-c4ccc(-c5cc(CCCCCC)c(-c6ccc(-c7sc(C=O)cc7CCCCCC)s6)s5)s4)s3)cc2CCCCCC)s1 | > 100 µM | > 100 µM | –
20 | OC1(c2ccc(Cl)cc2)c2ccccc2C2=Nc3ccccc3CN21 (stereo unspecified) | > 67.6 µM | 30.8 µM | –
21 | COC(=O)c1ccc(/C=C/C2=CC(=O)C=CC2=O)cc1 | > 43 µM | > 100 µM | –

Row | SMILES | TGI [1] | TGI [2] | GI50 [1]
22 | CCC(C#N)N(Cc1cccc(CN(C(C)=O)C(C#N)CC)c1)C(C)=O (stereo unspecified) | > 100 µM | > 100 µM | –
23 | N#CC(C(=O)c1ccccc1F)c1nc2cc(C(F)(F)F)ccc2s1 (stereo unspecified) | – | 63.1 µM | –
24 | CC(C)C[C@H](NC(=O)[C@@H](Cc1cccc2ccccc12)NC(=O)N1CCOCC1)B(O)O | > 100 µM | 33.3 µM | –
25 | Cc1cccc(Nc2cn(CCOc3ccccc3)c(=O)[nH]c2=O)c1 | > 100 µM | > 100 µM | –
26 | COc1ccc(NS(=O)C2CCCCC2)cc1 (stereo unspecified) | > 100 µM | > 100 µM | –
27 | COc1ccc(OC)c2c1C[C@@H]1C(C#N)N3[C@H](Cc4c(OC)ccc(OC)c4[C@@H]3C)C(=O)N1[C@H]2C (stereo partly specified) | 4.96 µM | > 57.5 µM | –
28 | Cc1cc(SCC(=O)c2ccc(Br)cc2)cc(C)[o+]1 | > 100 µM | > 100 µM | –
29 | CC(=O)c1ccc2c(c1)CC1(C2)Cc2cc3c(cc2C1)C(=O)CC3 (stereo unspecified) | > 100 µM | 16.1 µM | –
30 | O=[N+]([O-])c1ccccc1S(=O)(=O)N1CCCc2cc(Cl)ccc21 | > 100 µM | > 100 µM | –
31 | COc1ccc2c(c1)CCC(CN1CCN(CCOC(c3ccc(F)cc3)c3ccc(F)cc3)CC1)=C2 | > 100 µM | > 100 µM | –
32 | CCOC(=O)c1ccc(N=C/C=C(\Nc2ccc(C(=O)OCC)cc2)c2ccc3ccccc3c2)cc1 | > 100 µM | 95.8 µM | –
33 | Cn1c2ccccc2n2c(=O)c(-c3ccc(O)cc3)nnc12 | > 100 µM | > 100 µM | –
34 | CC1CCN(c2nnc(Cl)cc2C(=O)c2ccccc2)CC1 | 92.7 µM | > 100 µM | –
35 | COC(=O)CCCc1ccc2c(c1)CCC2 | > 100 µM | > 100 µM | –
36 | CC(C)=NN/C(=N\S(=O)(=O)c1cc(Cl)c(Oc2ccc([N+](=O)[O-])cc2Cl)c(Cl)c1)Nc1ccc(Cl)cc1 | > 100 µM | > 100 µM | –
37 | COc1cccc(-n2nnc3c(N)nc(N)nc32)c1 | > 100 µM | > 100 µM | –
38 | O=C(O)CCCN1CCCCC1 | > 100 µM | > 100 µM | –
39 | CC(C)(C)[Si](C)(C)OCC1OC(n2ccc(=O)[nH]c2=O)C(O[Si](C)(C)C(C)(C)C)/C1=N/O (stereo unspecified) | 18.1 µM | 17 µM | –
40 | CCN(CC)P1(=S)Oc2ccc3ccccc3c2-c2c(ccc3ccccc23)O1 | > 100 µM | > 100 µM | –
41 | CCCCN(CCCC)CC(=O)c1ccc2cc(Cl)c3ccccc3c2c1 | > 100 µM | > 100 µM | –
42 | COC(=O)c1c(C)nc(C)c(N=O)c1-c1ccccc1C(F)(F)F | > 100 µM | > 100 µM | –

Row | SMILES | TGI [1] | TGI [2] | GI50 [1]
43 | Brc1ccc(-c2ccc(-c3ccc(Br)s3)s2)s1 | > 100 µM | > 100 µM | –
44 | C=C1C(=O)O[C@H]2C1C[C@@H](O)[C@@]1(C)OC1CC[C@@]1(C)O[C@H]21 (stereo partly specified) | > 100 µM | – | –
45 | COc1ccccc1NC(=S)N/N=C(/c1ccccc1)c1ccccn1 | 21.8 µM | 12.6 µM | –
46 | CC1OC(OC2C(CO)OC(O[C@H]3CC[C@@]4(C)C(=CC[C@H]5[C@@H]6C[C@@H]7O[C@](O)(CC[C@@H](C)COC8OC(CO)C(O)C(O)C8O)[C@@H](C)[C@@H]7[C@@]6(C)CC[C@@H]54)C3)C(OC3OC(C)C(O)C(O)C3O)C2O)C(O)C(O)C1O (stereo partly specified) | 6.39 µM | 4.74 µM | –
47 | O=C(/C=C1\N=C(c2ccccc2)N(c2ccc3c(c2)Sc2cc(N4C(=O)/C(=C/C(=O)/C=C/c5ccccc5)N=C4c4ccccc4)ccc2N3)C1=O)/C=C/c1ccccc1 | 80 µM | > 100 µM | –
48 | Cc1cc2nc3c(C#N)c(-c4ccccc4)/c(=C\Nc4cccc(C(F)(F)F)c4)c(=O)n3c2cc1C | > 100 µM | 66.9 µM | –
49 | Cc1nn(-c2ccccc2)c(C)c1/C=N/NC(=O)c1sc(=S)n(-c2ccc(Cl)cc2)c1N | > 100 µM | > 100 µM | –
50 | COc1ccc(N=NN2CCCC2)cc1 | > 100 µM | > 100 µM | –
51 | CC(C)(C)c1cc(C2COC(=O)COCCOCC(=O)OCCOCCO2)cc(C(C)(C)C)c1O (stereo unspecified) | > 100 µM | > 92.9 µM | –
52 | CC1(C)COC(c2cccc(C3=NC(C)(C)CO3)c2)=N1 | > 100 µM | > 100 µM | –
53 | Cc1ccc(Nc2ncnc3sc(SCc4ccccc4)nc23)cc1 | > 100 µM | > 100 µM | –
54 | COc1cc(O)c(C(=O)/C=C/c2ccc(O)cc2)cc1Oc1ccc(C(=O)/C=C/c2ccc(O)cc2)c(O)c1 | 25.1 µM | 9.17 µM | –
55 | N=C(/C=C/c1ccc(-c2cn3cc(/C=C/C(=N)N4CCOCC4)ccc3n2)cc1)N1CCOCC1 | > 100 µM | > 100 µM | –
56 | CCCCc1ccc(N2C(=O)c3cc(C)cnc3S2(=O)=O)cc1 | > 100 µM | > 100 µM | –
57 | CCOC(=O)C1(C(=O)OCC)C[C@H]2CON=C2[C@@H]1c1ccc(C(F)(F)F)cc1 | > 100 µM | 64.9 µM | –
58 | Fc1ccc(C(=NCc2ccccc2)N2CCOCC2)cc1 | > 100 µM | > 100 µM | –
59 | S=C1c2cc(Cl)ccc2NC(=NC2CCCC2)C2CSCN12 (stereo unspecified) | > 100 µM | > 100 µM | –
60 | Cc1nc2c(=O)[nH]c(=O)nc-2n(CCO)c1C | > 100 µM | > 100 µM | –
61 | CCOC(=O)Nc1ccc(S(=O)(=O)Nc2ccc(Br)cc2)cc1 | > 100 µM | 86.7 µM | –
62 | COC(=O)CSc1[nH]c2nc(C)nc(Nc3ccccc3)c2c1C#N | – | > 10 µM | –
63 | Cc1ccc(S(=O)/C=C(\NC(=O)OCc2ccccc2)C(F)(F)F)cc1 (stereo unspecified) | > 100 µM | – | –
